Experimental data reported in US12364702B2, “Highly active sting protein agonist compound” (ADLAI NORTYE BIOPHARMA CO., LTD., priority 2018, dated 2025).

Biological target: STING (Homo sapiens, UniProt Q86WV6)
Experiment: IFN-β secretion from THP1 by STING activation (hIFNβ ELISA)
Assay type: cell-based
Details: THP1 cells, 24 h incubation, IFN-β in supernatant, top dose set according to solubility; for EC50: read-out: hIFNβ ELISA (EC50)
Description: In this assay, activation of STING by compounds was evaluated by detecting their ability to stimulate the secretion of IFN-β (interferon-beta) from THP1. THP1 was purchased from National Collection of Authenticated Cell Cultures (Cat #TCHu 57). The top dose of compounds was setted according to their solubility. First, Compounds were 3 times diluted with medium, 8-dose points in total. The final DMSO concentration was 0.2%. THP1 during the logarithmic phase was resuspended to 2×10^6 cells/ml in assay medium. The THP1-cell suspension was dispensed into a 96-well U bottom plate containing 50 ul of compound diluted in medium. After 24 h incubation at 37° C., 5% CO2, the supernatant was collected. The concentration of IFN-β in the supernatant was measured using a human IFNβ ELISA KIT (R&D, DY814-05). The data was fitted with GraphPad Prism or XLfit to calculate EC50 values.

Sequence of STING (Q86WV6 whole entry): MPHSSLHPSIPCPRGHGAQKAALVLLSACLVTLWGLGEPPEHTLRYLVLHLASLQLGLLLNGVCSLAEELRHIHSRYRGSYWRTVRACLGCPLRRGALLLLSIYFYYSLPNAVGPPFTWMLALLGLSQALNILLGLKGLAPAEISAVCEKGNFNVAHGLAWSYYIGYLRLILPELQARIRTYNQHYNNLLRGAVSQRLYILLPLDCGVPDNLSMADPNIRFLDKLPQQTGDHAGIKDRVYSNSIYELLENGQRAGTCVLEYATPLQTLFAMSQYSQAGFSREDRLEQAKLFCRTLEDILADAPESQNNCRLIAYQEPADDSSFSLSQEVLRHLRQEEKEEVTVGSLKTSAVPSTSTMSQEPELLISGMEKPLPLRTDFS

Row | Structure (SMILES) | hIFNβ ELISA (EC50, μM) | EC50 [µM]
1 | CCn1nc(C)cc1C(=O)Nc1nc2cc(C(N)=O)cc(OCCCOC)c2n1CCC[C@H]1COc2cc(-c3nn[nH]n3)cc3nc(NC(=O)c4cc(C)nn4CC)n1c23 [Example 26, (S)-2-(1-ethyl-3-methyl-1H-pyrazole-5-carboxamido)-1-(3-(2-(1-ethyl-3-methyl-1H-pyrazole-5-carboxamido)-7-(2H-tetrazol-5-yl)-3,4-dihydro-5-oxa-1,2a-diazaacenaphthylen-3-yl)propyl)-7-(3-methoxypropoxy)-1H-benzo[d]imidazole-5-carboxamide] | inactive | –
2 | CCn1nc(C)cc1C(=O)Nc1nc2cc(C(N)=O)cc(OCCCN(C)C(=O)CN(C)C)c2n1CCC[C@H]1COc2cc(C(N)=O)cc3nc(NC(=O)c4cc(C)nn4CC)n1c23 [Example 28, (S)-3-(3-(5-carbamoyl-7-(3-(2-(dimethylamino)-N-methylacetamido)propoxy)-2-(1-ethyl-3-methyl-1H-pyrazole-5-carboxamido)-1H-benzo[d]imidazol-1-yl)propyl)-2-(1-ethyl-3-methyl-1H-pyrazole-5-carboxamido)-3,4-dihydro-5-oxa-1,2a-diazaacenaphthylene-7-carboxamide] | – | 11.7
3 | CCn1nc(C)c2c1C(=O)Nc1nc3cc(C(N)=O)cc4c3n1[C@@H](CCCn1c(nc3cc(C(N)=O)cc(OCCCOC)c31)NC(=O)c1cc(C)nn1CCCCC2)CO4 [Example 58, (S)-7-Ethyl-24-(3-methoxypropoxy)-9,16-dimethyl-6,18-dioxo-5,6,7,10,11,12,13,14,18,19,26,27,27a,28-tetradecahydro-25H-29-oxa-4,4a1,5,7,8,14a,15,19,20,24b-decaaza-dicyclopenta[11, 12:18,19]indeno[1′,2′:7,8]cyclohenicosa[1,2,3-bc]acenaphthylene-2,22-dicarboxamide] | – | > 4.3
4 | CCn1nc(C)c2c1C(=O)Nc1nc3cc(C(N)=O)cc(OCCCOC)c3n1CCC[C@H]1COc3cc(C(N)=O)cc4nc(n1c34)NC(=O)c1cc(C)nn1CCCCC2 [Example 59, (S)-17-ethyl-24-(3-methoxypropoxy)-8,15-dimethyl-6,18-dioxo-5,6,10,11,12,13,14,17, 18, 19, 26, 27, 27a,28-tetradecahydro-25H-29-oxa-4,4a1,5,9,9a,16, 17, 19, 20, 24b-decaazadicyclopenta[11, 12:18,19]indeno[1′,2′:7,8]cyclohenicosa[1,2,3-bc]acenaphthylene-2,22-dicarboxamide] | – | > 5.6
